Activity calls are given as the source filed them. No cut-off for these calls is given here.
Assays:
[1] = biological target: Xanthine dehydrogenase/oxidase (Bos taurus, UniProt P80457); assay: Inhibition of bovine XOD assessed as inhibition of uric acid formation using xanthine as substrate preincubated with enzyme for 5 mins followed by substrate addition and measured for 30 mins by microplate reader analysis
Mus musculus [2] = assay: Anti-hyperuricemic activity against adenine and potassium oxonate-induced hyperuricemia Kunming mouse model assessed as reduction in serum uric acid level at 200 mg/kg, po administered via gavage once daily for 2 weeks (reference value: 318.16 +/- 3.31 uM); assay type: functional
Mus musculus [3] = assay: Anti-hyperuricemic activity against adenine and potassium oxonate-induced hyperuricemia Kunming mouse model assessed as reduction in serum creatinine level at 200 mg/kg, po administered via gavage once daily for 2 weeks (reference value: 87.62 +/- 0.67 uM); assay type: functional
Mus musculus [4] = assay: Anti-hyperuricemic activity against adenine and potassium oxonate-induced hyperuricemia Kunming mouse model assessed as blood urea nitrogen level at 200 mg/kg, po administered via gavage once daily for 2 weeks (reference value: 9.88 +/- 1.21 mM); assay type: functional
HK-2 [5] = assay: Antiinflammatory activity in hyperuricemic human HK-2 cells assessed as reduction in TGF-beta level at 200 uM; assay type: functional, cell-based
HK-2 [6] = assay: Antiinflammatory activity in hyperuricemic human HK-2 cells assessed as reduction in TNF-alpha level at 200 uM; assay type: functional, cell-based
HK-2 [7] = assay: Antiinflammatory activity in hyperuricemic human HK-2 cells assessed as reduction in IL-1beta level at 200 uM; assay type: functional, cell-based
Mus musculus [8] = assay: Anti-hyperuricemic activity against adenine and potassium oxonate-induced hyperuricemia Kunming mouse model assessed as reduction in serum uric acid level at 20 mg/kg, po administered via gavage once daily for 2 weeks (reference value: 318.16 +/- 3.31 uM); assay type: functional
Mus musculus [9] = assay: Anti-hyperuricemic activity against adenine and potassium oxonate-induced hyperuricemia Kunming mouse model assessed as reduction in serum creatinine level at 20 mg/kg, po administered via gavage once daily for 2 weeks (reference value: 87.62 +/- 0.67 uM); assay type: functional
Mus musculus [10] = assay: Anti-hyperuricemic activity against adenine and potassium oxonate-induced hyperuricemia Kunming mouse model assessed as blood urea nitrogen level at 20 mg/kg, po administered via gavage once daily for 2 weeks (reference value: 9.88 +/- 1.21 mM); assay type: functional
Mus musculus [11] = assay: Anti-hyperuricemic activity against adenine and potassium oxonate-induced hyperuricemia Kunming mouse model assessed as reduction in serum uric acid level at 20 mg/kg, po administered via gavage once daily for 4 weeks (reference value: 356.15 +/- 3.31 uM); assay type: functional
Mus musculus [12] = assay: Anti-hyperuricemic activity against adenine and potassium oxonate-induced hyperuricemia Kunming mouse model assessed as reduction in creatinine level at 20 mg/kg, po administered via gavage once daily for 4 weeks (reference value: 76.87 +/- 0.67 uM); assay type: functional
Mus musculus [13] = assay: Anti-hyperuricemic activity against adenine and potassium oxonate-induced hyperuricemia Kunming mouse model assessed as blood urea nitrogen level at 20 mg/kg, po administered via gavage once daily for 4 weeks (reference value: 15.25 +/- 1.21 mM); assay type: functional
Mus musculus [14] = assay: Renal protective activity against adenine and potassium oxonate-induced hyperuricemia Kunming mouse model assessed as reduction in urate accumulation in kidney at 20 mg/kg, po administered via gavage for 2 weeks by polarization microscopic analysis; assay type: functional, organism-based
Mus musculus [15] = organism: Mus musculus; conditions: Kunming, dose 20.0 mg/kg, route po, time 2.0 weeks
Description: In vivo inhibition of XOD in adenine and potassium oxonate-induced hyperuricemia Kunming mouse model assessed as reduction in XOD activity in liver at 20 mg/kg, po administered via gavage once daily for 2 weeks

Xanthine dehydrogenase/oxidase, sequence (P80457 whole entry): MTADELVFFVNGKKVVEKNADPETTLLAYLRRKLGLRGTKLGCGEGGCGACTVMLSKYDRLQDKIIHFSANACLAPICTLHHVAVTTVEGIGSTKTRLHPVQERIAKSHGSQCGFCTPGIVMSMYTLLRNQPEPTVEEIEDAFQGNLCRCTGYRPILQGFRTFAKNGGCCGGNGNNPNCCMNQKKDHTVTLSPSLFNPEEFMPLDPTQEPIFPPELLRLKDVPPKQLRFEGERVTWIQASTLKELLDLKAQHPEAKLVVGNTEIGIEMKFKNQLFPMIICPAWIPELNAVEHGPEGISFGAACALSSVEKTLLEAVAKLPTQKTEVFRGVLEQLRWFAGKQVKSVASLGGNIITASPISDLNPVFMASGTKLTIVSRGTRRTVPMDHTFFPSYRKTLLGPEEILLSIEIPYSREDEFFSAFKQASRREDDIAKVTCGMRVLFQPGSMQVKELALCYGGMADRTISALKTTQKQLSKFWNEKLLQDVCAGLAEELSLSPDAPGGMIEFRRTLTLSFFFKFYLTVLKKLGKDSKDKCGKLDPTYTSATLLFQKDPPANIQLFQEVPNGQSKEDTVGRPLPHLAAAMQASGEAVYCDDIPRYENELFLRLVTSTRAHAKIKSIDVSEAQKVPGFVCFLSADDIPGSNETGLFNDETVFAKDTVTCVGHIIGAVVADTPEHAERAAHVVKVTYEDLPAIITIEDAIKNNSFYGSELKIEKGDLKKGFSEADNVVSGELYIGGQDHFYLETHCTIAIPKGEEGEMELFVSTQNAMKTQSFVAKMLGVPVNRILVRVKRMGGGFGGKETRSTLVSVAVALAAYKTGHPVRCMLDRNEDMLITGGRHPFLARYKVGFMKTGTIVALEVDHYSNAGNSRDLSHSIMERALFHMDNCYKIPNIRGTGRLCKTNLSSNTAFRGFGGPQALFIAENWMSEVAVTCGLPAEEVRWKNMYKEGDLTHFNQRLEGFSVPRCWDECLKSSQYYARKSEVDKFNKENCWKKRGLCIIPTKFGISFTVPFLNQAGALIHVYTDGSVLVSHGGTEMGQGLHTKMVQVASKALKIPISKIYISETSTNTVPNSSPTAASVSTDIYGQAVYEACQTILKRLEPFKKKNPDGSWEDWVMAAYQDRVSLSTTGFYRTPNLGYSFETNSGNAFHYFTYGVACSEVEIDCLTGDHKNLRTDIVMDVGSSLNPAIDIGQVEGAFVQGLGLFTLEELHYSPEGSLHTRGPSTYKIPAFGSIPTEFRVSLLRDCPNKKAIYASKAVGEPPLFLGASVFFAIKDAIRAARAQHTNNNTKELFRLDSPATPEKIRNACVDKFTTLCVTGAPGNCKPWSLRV

**Q.** Which IC50 [1] does the source give for COC(=O)C1=CO[C@@H](O[C@@H]2O[C@H](CO)[C@@H](O)[C@H](O)[C@H]2O)[C@@H]2C(CO)=CC[C@H]12 [GENIPOSIDE] here?
**A.** 161 µM

**Q.** And the Activity (Mus musculus [2])?
**A.** 236.72 µM

**Q.** What about the Activity (Mus musculus [3]) of the same compound?
**A.** 75.09 µM

**Q.** And the Activity (Mus musculus [4])?
**A.** 7 mM

**Q.** What about the Activity (HK-2 [5]) of the same compound?
**A.** Active

**Q.** And the Activity (HK-2 [6])?
**A.** Active

**Q.** What about the Activity (HK-2 [7]) of the same compound?
**A.** Active

**Q.** How did the Activity (Mus musculus [8]) turn out when Oc1ncnc2[nH]ncc12 [ALLOPURINOL] was run?
**A.** 233.62 µM

**Q.** What about the Activity (Mus musculus [9]) of the same compound?
**A.** 63.31 µM

**Q.** And the Activity (Mus musculus [10])?
**A.** 6.3 mM

**Q.** And the Activity (Mus musculus [11])?
**A.** 193.68 µM

**Q.** And the Activity (Mus musculus [12])?
**A.** 47.26 µM

**Q.** What about the Activity (Mus musculus [13]) of the same compound?
**A.** 12.58 mM

**Q.** What about the Activity (Mus musculus [14]) of the same compound?
**A.** Active

**Q.** And the inhibition (Mus musculus [15])?
**A.** Active

Source: ChEMBL document CHEMBL5120838, “Synthesis and biological evaluation of geniposide derivatives as inhibitors of hyperuricemia, inflammatory and fibrosis” (Eur J Med Chem, 2022)
